Measured values: US20210353658A1, “COMPOSITION AND METHOD OF INHIBITING CORTISONE REDUCTASE” (Amorepacific Corporation, priority 2018, published 2021)

What was measured:
[1] = tested on: keratinocyte differentiation markers of KRT1 and KRT10; assay: RT-qPCR (TAQMAN real-time PCR) gene expression of keratinocyte differentiation markers in UVB-irradiated NHEK; assay type: cell-based, human; conditions: compound 10 μg/ml
Procedure: (§1) Normal human epidermal keratinocytes (NHEK) were cultured in a 6-well plate incubator. Specifically, the normal human epidermal keratinocytes (NHEK) were cultured for 4 days by replacing it with phosphate-buffered saline (PBS) after 24 hours to irradiate UVB (25 mJ/cm^2) and adding cortisone (10 μg/ml) and a compound represented by Chemical Formula 1-1 (glucocerebrosides (soy, 98%), Avanti Polar Lipids, Inc.) to NHEK culture media.
In addition, the normal human epidermal keratinocytes (NHEK) were treated with TRIZOL to separate RNA, which was used to synthesize cDNA through RT-PCR (reverse transcriptional polymerase chain reaction). The synthesized cDNA was used to perform TAQMAN® real-time PCR and measure gene expression amounts of keratinocyte differentiation markers of KRT1 and KRT10, and the results are shown in FIGS. 2 and 3. Referring to FIGS. 2 and 3, in the well to which the compound represented by Chemical Formula 1 (10 μg/ml) was added, the gene expression of the keratinocyte differentiation markers (KRT10, KRT1) inhibited by ultraviolet (UVB) rays in the keratinocytes was increased. […]

[2] = target: T1, 11β-hydroxysteroid dehydrogenase type 1 (Homo sapiens, UniProt P28845); assay: Cortisone reductase activity inhibition: cortisol concentration in the culture solution of UVB-irradiated, cortisone-treated NHEK, by ELISA; assay type: cell-based; conditions: UVB 25 mJ/cm^2, cortisone 10 μg/ml, compound 10 μg/ml, cultured 4 days, ELISA (FIG. 1)
T1 construct: endogenous in cells; host or cells: normal human epidermal keratinocytes (NHEK), UVB-irradiated
Procedure: as §1
Subsequently, the cell culture solution was collected to measure a cortisol concentration in an ELISA method, and the results are shown in FIG. 1. […] Accordingly, a composition including the compound represented by Chemical Formula 1-1 as an active ingredient according to an embodiment turned out to inhibit activity of 11β-hydroxysteroid dehydrogenase type 1 that is cortisone reductase.

T1 sequence (P28845 whole entry): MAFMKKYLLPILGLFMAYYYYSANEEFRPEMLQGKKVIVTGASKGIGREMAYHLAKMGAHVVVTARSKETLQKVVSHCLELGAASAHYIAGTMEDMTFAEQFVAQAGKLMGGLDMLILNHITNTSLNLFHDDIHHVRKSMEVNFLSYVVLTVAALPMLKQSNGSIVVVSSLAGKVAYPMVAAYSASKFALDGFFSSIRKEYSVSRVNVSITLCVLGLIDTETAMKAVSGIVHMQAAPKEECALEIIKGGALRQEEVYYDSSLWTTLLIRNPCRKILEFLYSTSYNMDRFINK

- cortisol concentration in cell culture solution [2]: greatly did not increase
SMILES: CCCCCCCCC/C=C/CC/C=C/[C@@H](O)[C@H](CO[C@@H]1OC(CO)[C@H](O)C(O)C1O)NC(=O)C(O)CCCCCCCCCCCCCC (stereo partly drawn) [Chemical Formula 1-1, glucocerebrosides (soy, 98%)]
- gene expression of keratinocyte differentiation marker KRT10 inhibited by UVB ([1]; RT-qPCR (FIG. 2)): increased
- gene expression of keratinocyte differentiation marker KRT1 inhibited by UVB ([1]; RT-qPCR (FIG. 3)): increased
